Test results: publication PMC8069941, “Potential Anticancer Lipoxygenase Inhibitors from the Red Sea-Derived Brown Algae Sargassum cinereum: An In-Silico-Supported In-Vitro Study” (Antibiotics, 2021)

Tests used:
5-LOX = molecular target: T1, 5-LOX (Homo sapiens, UniProt P09917); assay: 5-LOX inhibition assay (human recombinant enzyme kit); assay type: biochemical
T1 construct: purchased Cayman Chemical 60,402
T1 sequence (P09917 1-674): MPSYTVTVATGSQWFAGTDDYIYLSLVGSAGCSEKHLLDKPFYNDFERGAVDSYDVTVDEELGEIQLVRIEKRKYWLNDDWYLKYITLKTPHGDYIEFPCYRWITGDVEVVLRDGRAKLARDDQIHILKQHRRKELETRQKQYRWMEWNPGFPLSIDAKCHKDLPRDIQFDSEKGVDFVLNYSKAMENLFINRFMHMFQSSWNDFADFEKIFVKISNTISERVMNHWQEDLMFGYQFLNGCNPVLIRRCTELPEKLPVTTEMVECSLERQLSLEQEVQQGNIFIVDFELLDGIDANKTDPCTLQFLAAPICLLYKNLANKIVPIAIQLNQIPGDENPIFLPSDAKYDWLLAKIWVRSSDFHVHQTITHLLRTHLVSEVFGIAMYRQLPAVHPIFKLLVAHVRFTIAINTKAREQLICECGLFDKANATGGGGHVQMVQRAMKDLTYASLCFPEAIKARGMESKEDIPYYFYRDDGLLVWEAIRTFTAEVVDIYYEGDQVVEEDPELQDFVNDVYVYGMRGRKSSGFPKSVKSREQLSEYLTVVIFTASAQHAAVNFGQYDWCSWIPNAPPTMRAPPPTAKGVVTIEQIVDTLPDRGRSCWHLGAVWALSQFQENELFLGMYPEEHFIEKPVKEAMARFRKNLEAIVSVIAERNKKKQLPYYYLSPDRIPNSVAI
Description: The ability of the isolated compounds 12, 13, and 19 to inhibit 5-LOX and 15-LOX enzymes (IC50 and Ki values, µM) was determined using human recombinant enzyme assay kits (catalog no 60,402 and 10011263, Cayman Chemical, Ann Arbor, MI, USA) following manufacturer’s specifications. Stock solutions were freshly prepared before use, and buffer solution (0.1 M Tris-HCl, PH, 7.4) was used. 10 µL of each compound were prepared, dissolved in the least amount of DMSO and diluted with the stock solution to be in concentrations of (0.001, 0.1, 1, 5, 10 µM) in a final volume of […]. The kinetic parameters for both 5-LOX and 15-LOX were determined by measuring the increase in absorbance at 238 nm in an Agilent 8453 diode array spectrophotometer (Agilent Technologies, Santa Clara, CA, USA). Substrate concentration was ranged from 5 to 50 µM. Substrate concentrations (5, 10, 20, 30, 40, 50 µM) were monitored in triplicate for each sample [37]. Doxorubicin was used as a positive control.

15-LOX = molecular target: T2, 15-LOX (Homo sapiens, UniProt O15296); assay: 15-LOX inhibition assay (human recombinant enzyme kit); assay type: biochemical
T2 construct: purchased Cayman Chemical 10011263
T2 sequence (O15296 1-676): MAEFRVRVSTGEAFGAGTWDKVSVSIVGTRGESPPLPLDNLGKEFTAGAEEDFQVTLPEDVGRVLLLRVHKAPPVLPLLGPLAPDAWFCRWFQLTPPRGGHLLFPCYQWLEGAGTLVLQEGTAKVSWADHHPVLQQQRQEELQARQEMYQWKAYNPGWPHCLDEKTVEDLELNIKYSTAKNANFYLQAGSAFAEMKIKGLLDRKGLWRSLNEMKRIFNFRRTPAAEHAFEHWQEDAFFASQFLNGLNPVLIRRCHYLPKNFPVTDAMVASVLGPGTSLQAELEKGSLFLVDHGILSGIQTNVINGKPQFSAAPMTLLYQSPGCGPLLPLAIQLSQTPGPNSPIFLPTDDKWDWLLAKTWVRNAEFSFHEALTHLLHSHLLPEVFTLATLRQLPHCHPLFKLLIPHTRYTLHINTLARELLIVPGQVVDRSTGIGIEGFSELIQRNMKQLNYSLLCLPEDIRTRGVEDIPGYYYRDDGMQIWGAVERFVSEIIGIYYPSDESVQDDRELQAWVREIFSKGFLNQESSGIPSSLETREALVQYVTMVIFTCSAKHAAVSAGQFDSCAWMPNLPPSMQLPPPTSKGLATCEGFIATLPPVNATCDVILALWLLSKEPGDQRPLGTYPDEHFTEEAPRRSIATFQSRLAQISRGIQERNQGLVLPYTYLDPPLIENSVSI
Description: Stock solutions were freshly prepared before use, and buffer solution (0.1 M Tris-HCl, PH, 7.4) was used. 10 µL of each compound were prepared, dissolved in the least amount of DMSO and diluted with the stock solution to be in concentrations of (0.001, 0.1, 1, 5, 10 µM) in a final volume of 210 mL. […] Substrate concentration was ranged from 5 to 50 µM. Substrate concentrations (5, 10, 20, 30, 40, 50 µM) were monitored in triplicate for each sample [37]. Doxorubicin was used as a positive control.

[1] = in vitro, human recombinant enzyme

Structure (SMILES): CCCCC/C=C\C/C=C\C/C=C\C/C=C\CCCCOCC(O)CO[C@H]1O[C@H](CO)[C@@H](O)[C@H](O)[C@H]1O (stereo partly drawn) [compound 19, 1-O-arachidonyl-3-O-(α-D-glucopyranosyl) glycerol]
- Ki (5-LOX; in vitro inhibition constant): 1.4 ± 0.2 µM
- IC50 (5-LOX; [1]): 2.1 ± 0.4 µM
- Ki (15-LOX; in vitro inhibition constant): 4.2 ± 0.1 µM
- IC50 (15-LOX; [1]): 6.7 ± 0.3 µM
